Test results taken from patent US12702660B2, “Method for treating cancer with an oral dosage form of an estrogen receptor-alpha inhibitor” (Eisai R&D Management Co., Ltd., priority 2019, dated 2026).

Tested on: locally advanced or metastatic ER+HER2−BC
Assay: Tumor response and progression-free survival, phase 1 dose escalation
Format: in vivo, human
Text: Example 3 reports Clinical and Genomics Analysis of a single trial. The Study Population in Example 3 was as follows: • Women ≥18 years old with locally advanced or metastatic ER+HER2−BC. • Progression on at least one hormonal therapy and at least one additional therapy/regimen; no maximum number of prior lines of therapy. • ECOG performance status of 0 or 1. • Adequate bone marrow and organ function. • Excluded if had bone-only disease or inflammatory BC.
Methods were used to analyze whether H3B-6545 inactivates both wild-type and mutant ERα by targeting cysteine 530 and enforcing a unique antagonist conformation. Methods: Women with locally advanced or metastatic HR+BC are treated (tx) with H3B-6545 drug product administered once daily orally by capsule over a 28 day cycle after progression on at least one hormonal therapy and at least one additional therapy/regimen. Dose escalation uses a 3+3 design with the option to backfill previously cleared doses and allows for intrapatient dose escalation. This example explored the safety, pharmacokinetics and pharmacodynamics of H3B-6545 in women with HR+BC to identify a recommended subsequent dose for testing.
• H3B-6545 administered once daily orally over a 28 day cycle. • Dose escalation using a standard 3+3 study design using dose cohorts of 100, 200, 300, 450, and 600 mg QD. • Patients allowed to backfill previously cleared doses. • Intra-patient dose escalation allowed after completion of Cycle 3. Results (as of Apr. 20, 2019) Patient Population: • 46 patients were treated with H3B-6545 at doses of 100 to 600 mg QD. • 42 (91.3%) patients received a prior CDK4/6 inhibitor and 32 (69.6%) prior fulvestrant. • 30 (65.2%) patients received ≥3 prior anti-cancer therapy lines in the advanced/metastatic setting.

[1] = Total (N = 46), 100 to 600 mg QD
[2] = as of Apr. 20, 2019, 46 patients, 100 to 600 mg QD

In the case of `CN(C)C(=O)/C=C/CNCCOc1ccc(/C(=C(/CC(F)(F)F)c2ccccc2)c2ccc3[nH]nc(F)c3c2)cn1` [H3B-6545, (E)-N,N-dimethyl-4-[2-[5-[(Z)-4,4,4-trifluoro-1-(3-fluoro-1H-indazol-5-yl)-2-phenylbut-1-enyl]pyridin-2-yl]oxyethylamino]but-2-enamide], the “Best Overall Response: Complete Response (CR)” value (“Best Overall Response … (CR)” below) (100 mg QD (N = 6)) is reported as 0 (0.0) n (%), the “Best Overall Response: Not Evaluable (NE)” value (100 mg QD (N = 6)) is reported as 0 (0.0) n (%) and the “Best Overall Response: Partial Response (PR)” value (“Best Overall Response … (PR)” below) (100 mg QD (N = 6)) is reported as 1 (16.7) n (%). For the same molecule, the “Best Overall Response: Progressive Disease (PD)” value (“Best Overall Response … (PD)” for short) (100 mg QD (N = 6)) was 0 (0.0) n (%), the “Best Overall Response: Unknown (UNK)” value (100 mg QD (N = 6)) was 0 (0.0) n (%) and the “Objective Responses (CR + PR)” value (100 mg QD (N = 6)) was 1 (16.7) n(%). For the same molecule, the “Progressive-Free Survival, Median (95% CI)” value (100 mg QD (N = 6)) was 9.3 (7.4, NE) months, the “Progressive-Free Survival, Q1 (95% CI)” value (100 mg QD (N = 6)) was 7.5 (7.4, 11.0) months and the “Best Overall Response … (CR)” value (200 mg QD (N = 12)) was 0 (0.0) n (%). For the same molecule, the “Best Overall Response: Not Evaluable (NE)” value (200 mg QD (N = 12)) was 4 (33.3) n (%), the “Best Overall Response … (PR)” value (200 mg QD (N = 12)) was 1 (8.3) n (%) and the “Best Overall Response … (PD)” value (200 mg QD (N = 12)) was 2 (16.7) n (%). The “Best Overall Response: Unknown (UNK)” value (200 mg QD (N = 12)) was 1 (8.3) n (%), the “Objective Responses (CR + PR)” value (200 mg QD (N = 12)) was 1 (8.3) n(%) and the “Progressive-Free Survival, Median (95% CI)” value (200 mg QD (N = 12)) was 5.5 (0.9, NE) months. For the same molecule, the “Progressive-Free Survival, Q1 (95% CI)” value (200 mg QD (N = 12)) was 1.5 (0.9, 5.5) months, the “Best Overall Response … (CR)” value (300 mg QD (N = 11)) was 0 (0.0) n (%) and the “Best Overall Response: Not Evaluable (NE)” value (300 mg QD (N = 11)) was 3 (27.3) n (%). The “Best Overall Response … (PR)” value (300 mg QD (N = 11)) was 0 (0.0) n (%), the “Best Overall Response … (PD)” value (300 mg QD (N = 11)) was 5 (45.5) n (%) and the “Best Overall Response: Unknown (UNK)” value (300 mg QD (N = 11)) was 0 (0.0) n (%). For the same molecule, the “Objective Responses (CR + PR)” value (300 mg QD (N = 11)) was 0 (0.0) n(%), the “Progressive-Free Survival, Median (95% CI)” value (300 mg QD (N = 11)) was 1.8 (1.6, 5.4) months and the “Progressive-Free Survival, Q1 (95% CI)” value (300 mg QD (N = 11)) was 1.8 (1.6, 1.8) months. The “Progressive-Free Survival, Q3 (95% CI)” value (300 mg QD (N = 11)) was 5.4 (1.8, NE) months, the “Best Overall Response … (CR)” value (450 mg QD (N = 10)) was 0 (0.0) n (%) and the “Best Overall Response: Not Evaluable (NE)” value (450 mg QD (N = 10)) was 3 (30.0) n (%). The “Best Overall Response … (PR)” value (450 mg QD (N = 10)) was 1 (10.0) n (%), the “Best Overall Response … (PD)” value (450 mg QD (N = 10)) was 3 (30.0) n (%) and the “Best Overall Response: Unknown (UNK)” value (450 mg QD (N = 10)) was 0 (0.0) n (%). The “Objective Responses (CR + PR)” value (450 mg QD (N = 10)) was 1 (10.0) n(%), the “Progressive-Free Survival, Median (95% CI)” value (450 mg QD (N = 10)) was 7.2 (1.8, 7.3) months and the “Progressive-Free Survival, Q1 (95% CI)” value (450 mg QD (N = 10)) was 1.9 (1.8, 7.2) months. The “Progressive-Free Survival, Q3 (95% CI)” value (450 mg QD (N = 10)) was 7.3 (2.1, 7.5) months, the “Best Overall Response … (CR)” value (600 mg QD (N = 7)) was 0 (0.0) n (%) and the “Best Overall Response: Not Evaluable (NE)” value (600 mg QD (N = 7)) was 4 (57.1) n (%). The “Best Overall Response … (PR)” value (600 mg QD (N = 7)) was 0 (0.0) n (%), the “Best Overall Response … (PD)” value (600 mg QD (N = 7)) was 1 (14.3) n (%) and the “Best Overall Response: Unknown (UNK)” value (600 mg QD (N = 7)) was 0 (0.0) n (%). The “Objective Responses (CR + PR)” value (600 mg QD (N = 7)) was 0 (0.0) n(%), the “Best Overall Response … (CR)” value [1] was 0 (0.0) n (%) and the “Best Overall Response: Not Evaluable (NE)” value [1] was 14 (30.4) n (%). For the same molecule, the “Best Overall Response … (PR)” value [1] was 3 (6.5) n (%), the “Best Overall Response … (PD)” value [1] was 11 (23.9) n (%) and the “Best Overall Response: Unknown (UNK)” value [1] was 1 (2.2) n (%). For the same molecule, the “Objective Responses (CR + PR)” value [1] was 3 (6.5) n(%), the “Progressive-Free Survival, Median (95% CI)” value [1] was 7.2 (1.9, 7.4) months and the “Progressive-Free Survival, Q1 (95% CI)” value [1] was 1.8 (1.6, 2.1) months. The “Progressive-Free Survival, Q3 (95% CI)” value [1] was 7.5 (7.3, NE) months, the “Stable disease, patients” value (as of 10 Dec. 2018, 32 patients, 100 to 450 mg/day) was 15 patients and the “At least 6 months of therapy completed, % of patients” value [2] was 30.4%. For the same molecule, the “At least 6 months of therapy completed, patients” value [2] was 14 patients, the “Confirmed partial response, % of patients” value [2] was 6.5% and the “Confirmed partial response, patients” value [2] was 3 patients. For the same molecule, the “Stable disease, % of patients” value [2] was 37.0%, the “Stable disease, patients” value [2] was 17 patients and the mPFS (heavily pre-treated, post CDK4/6i setting, 46 patients) was 7.2 months. The “response of case study patient” value (patient case study, 450 mg QD, after 4 cycles) was “partial response”, the “decrease in the sum of the diameters of all target lesions” value (patient case study, 450 mg QD, baseline to C3D1) was −27.8% and the “decrease in the sum of the diameters of all target lesions” value (patient case study, 450 mg QD, baseline to C7D1) was −35.6%.
